{"source": "patent US20040248257A1", "about": "“SPEX compositions and methods of use” (The Scripps Research Institute, priority 2003, published 2004)", "key": {"[1]": {"tested_on": "mSPEX mRNA expression", "settings": "murine cells; 10 μM U0126; cultured DP thymocytes; one experiment", "experimental": "(§1) The expression of mSPEX and hSPEX mRNAs is compared in cultured DP thymocytes in the presence or absence of stimulation with PMA and ionomycin and in the presence or absence of a MEK inhibitor (10 μM U0126)."}, "[2]": {"tested_on": "hSPEX mRNA expression", "settings": "human cells; 10 μM U0126; cultured DP thymocytes; one experiment", "experimental": "as §1"}}, "data": [{"smiles": "N#CC(=C(/N)Sc1ccccc1N)/C(C#N)=C(\\N)Sc1ccccc1N", "note": "[U0126]", "values": [{"measurement": "inhibition of the increase of SPEX mRNA expression observed with PMA and ionomycin stimulation", "setting": "[1]", "value": "approximately 70%"}, {"measurement": "inhibition of the increase of SPEX mRNA expression observed with PMA and ionomycin stimulation", "setting": "[2]", "value": "approximately 70%"}]}]}
